Measured values as given in PubChem BioAssay AID179 (DTP/NCI, 2004).
Active and inactive are the calls of the source.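 Rule for the calls: active = compounds giving half or more protection of infected cells from virus-caused growth loss, again on retest; inactive = the rest.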 Where a SMILES comes first, the peptide text is derived from it. [ ]: non-standard residue; d: D form. The star is where a group is joined. Ac5c = NC1(C(=O)O)CCCC1; Boc = CC(C)(C)OC(=O)*; tBu = CC(C)(C)*

Test system: CEM cells HIV-1 protection, formazan growth assay
Test: NCI AIDS Antiviral Assay
Details: for IC50: measured here: growth of uninfected CEM cells
Procedure, shortened: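 Steps: treat uninfected and HIV-1-infected human CEM cells at five drug levels; quantify growth by soluble formazan; retest any compound reaching 50% protection; classify actives from the retest.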

Compound | EC50 [µM] | IC50 [µM] | outcome
COC(=O)c1ccc(OCCn2nnc(C(=O)NN)c2C(=O)NN)cc1 | > 100 | > 100 | –
O=c1c2ccccc2oc2cc(C(O)c3ccccc3)ccc12 (centres undefined) | > 200 | 97.7 | –
C1=NCCN=Cc2ccccc2NCCNc2ccccc21 | > 200 | 91.2 | –
C=C1CC(C)(COc2ccc3c(C)c(Cl)c(=O)oc3c2)OC1=O (centres undefined) | > 2 | 0.617 | –
O=C1Cc2c(-c3ccccc3)cc(-c3ccc4ccccc4c3)nc2-c2ccccc2N1 | > 200 | 51.3 | –
O=C1CCCCC/C1=C\c1cccc([N+](=O)[O-])c1 | > 200 | 23.4 | –
CCCN1CN(C(C(=O)N[C@@H]2C(=O)N3C(C(=O)O)=C(C)CSC23)c2ccc(O)cc2)CSC1=S (some centres undefined) | > 347 | 195 | –
CC(=O)O[C@H]1CC(C)(C)C(=C=C/C(C)=C/C=C/C=C/C=C(C)/C=C2C=C(/C=C/[C@@]34O[C@]3(C)C[C@@H](O)CC4(C)C)C(=O)O/2)[C@](C)(O)C1 | > 151 | 6.92 | –
Cc1cccc(C(C)C)c1NC(=O)CC1C(=O)Nc2ccccc2S1(=O)=O (centres undefined) | > 7.08 | > 7.08 | –
COc1c2ccoc2nc2c(OC)c(OCC(O)C(C)(C)O)ccc12 (centres undefined) | > 513 | > 513 | –
CCC(C)[N-]c1cccc[n+]1[O-].CCC(C)[N-]c1cccc[n+]1[O-].[Cu+2] (centres undefined) | > 200 | 83.2 | –
COc1cc(CO)c(C2OC(CO)C(O)C2O)c(OC)c1 (centres undefined) | – | – | inactive
COC(=O)/C=C/c1cc2c(cc1-c1c(C(=O)O)cc(OC)c(OC)c1OC)OCO2 | > 603 | > 603 | –
O=c1[nH]c(=O)c2ncn(-c3ccc([N+](=O)[O-])cn3)c2[nH]1 | – | – | inactive
CC1(C)OC2C(COCc3ccccc3)=CC(n3ccc(=O)[nH]c3=O)C2O1 (centres undefined) | > 200 | > 200 | –
Oc1ccccc1/C=N/NC(=S)Nc1cccc2cc3ccccc3nc12 | > 200 | 0.575 | –
CC1Cn2c(c(-c3ccccc3)c(=O)[nH]c2=O)O1 (centres undefined) | > 363 | > 363 | –
CCCCCCCC(=O)OCC(C[As](=O)(O)O)OC(=O)CCCCCCC (centres undefined) | > 200 | 15.1 | –
Cc1cccc2c(N)c3cccc(C(=O)NCCNCCN)c3nc12 | > 0.2 | 0.11 | –
O=c1cccc2n1C[C@H]1C[C@@H]2CN2CCCC[C@H]12 | > 200 | > 200 | –
O=C1NC(N2CCCC(CO)C2)=N/C1=C\c1ccc(O)cc1 (centres undefined) | > 200 | 115 | –

Compound | EC50 [µM] | IC50 [µM] | outcome
CC(=O)N1[C@H](C(=O)O)CS[C@H]1c1ccc(F)cc1 | – | – | inactive
COc1ccc2cc(C(=O)NCCCNC(=O)c3ccc4c(OC)c(OC)ccc4c3)ccc2c1OC | > 200 | > 200 | –
COc1cc(OC)c(SSCCCCS(=O)O)c(OC)c1 | – | – | inactive
Cc1cc(N(CCC#N)CCC#N)ccc1/C(N=Nc1ccc(Cl)cc1)=N\NC(=O)c1cc(Cl)ccc1O | > 200 | 102 | –
O=C(O)c1ccccc1C(=O)NC(Cc1cnc[nH]1)C(=O)O (centres undefined) | > 200 | > 200 | –
C/C=C/CC(C)C(OS(=O)(=O)O)C1C(=O)NC(CC)C(=O)N(C)CC(=O)N(C)C(CC(C)C)C(=O)NC(C(C)C)C(=O)N(C)C(CC(C)C)C(=O)NC(C)C(=O)NC(C)C(=O)N(C)C(CC(C)C)C(=O)N(C)C(CC(C)C)C(=O)N(C)C(C(C)C)C(=O)N1C (centres undefined) | 0.661 | 6.61 | –
Cn1c2ccccc2c(=O)c2c([N+](=O)[O-])ccc(NCCN)c21 | – | – | inactive
O=C1CC(=O)Nc2ccccc2N1 | > 200 | > 200 | –
CCOC(=O)c1ccc(CS(=O)(=O)c2ccc(OC)cc2)cc1 | > 56.2 | > 56.2 | –
COC(=O)C1(C2CCOC2=O)NCCc2c1[nH]c1ccccc21 (centres undefined) | > 245 | 141 | –
Cc1nc(N2N=C(c3ccc(Cl)cc3)CCC2=O)sc1[N+](=O)[O-] | > 74.1 | 32.4 | –
N#Cc1cc(C#N)c(N)nc1N | > 200 | > 200 | –
CC1(C)CC(=O)c2c(nc3ccc4ccccc4c3c2-c2ccc(NC(=O)CCC(=O)Nc3ccc(-c4c5c(nc6ccc7ccccc7c46)CC(C)(C)CC5=O)cc3)cc2)C1 | > 100 | > 100 | –
CN(C)C(=S)/N=C1\SC(=Nc2ccccc2)C(=Nc2ccccc2)N1c1ccc([N+](=O)[O-])cc1 | > 200 | 138 | –
Cn1ccc(C(=O)N2CCSC2=S)c(OCc2ccccc2)c1=O | > 200 | 120 | –
N#Cc1cccc(C[P+](c2ccccc2)(c2ccccc2)c2ccccc2)c1 | > 200 | 135 | –
O=S(=O)(O)CC(O)CCl (centres undefined) | > 200 | > 200 | –
CN1CCCC1c1cccnc1 (centres undefined) | 77.6 | > 200 | –
Cc1c(-c2nc(N)c(C#N)c(N)c2C#N)c(=O)oc2ccccc12 | > 200 | 115 | –
CO[C@H]1SC[C@H](OC(C)=O)[C@H](OC(C)=O)[C@H]1OC(C)=O | > 200 | > 200 | –
C[N+]1=C2[B-](C(C)(C)C)=[N+](C(C)(C)C)[B-]2(C(C)(C)C)[N+](C)=C2[B-](C(C)(C)C)=[N+](C(C)(C)C)[B-]21C(C)(C)C (centres undefined) | > 50.1 | > 50.1 | –

Compound | EC50 [µM] | IC50 [µM] | outcome
Cc1ccc2ccc3c(=O)cc(C)[nH]c3c2n1 | 9.77 | 32.4 | –
CC(=O)Oc1ccc2c(c1)[nH]c1c3ccc(OC(C)=O)cc3oc(=O)c21 | > 200 | 11.7 | –
O=S(=O)(O)c1ccc2cc(S(=O)(=O)O)ccc2c1 | – | – | inactive
Cc1ccc(-c2cc(=O)c3cc(C)c(C)c(C(=O)O)c3o2)cc1N | – | – | inactive
O=C(O)CC[n+]1ccccc1 | > 200 | > 200 | –
CC[C@@H](CCCCC1CC[C@H]2CC(=O)C[C@@H]12)OC (some centres undefined) | > 200 | 102 | –
COc1ccc(NC2C(=O)C3(C)CCC2C3(C)C)cc1 (centres undefined) | – | – | inactive
CCOC(=O)c1nc2ccccc2nc1Oc1ccc(OC)cc1 | > 200 | > 200 | –
CCCCN(CCCC)CC(C(=O)Nc1ccc([N+](=O)[O-])cc1[N+](=O)[O-])/C(C)=N\NC(=S)NN (centres undefined) | > 52.5 | > 52.5 | –
CCC(CCCN)Nc1cc(OC)cc2c(C)ccnc12 (centres undefined) | > 200 | 7.41 | –
CCOC(=O)CSc1nnc(C(Sc2nc(-c3ccccc3)c(-c3ccccc3)[nH]2)C(C)C)n1-c1ccccc1 (centres undefined) | > 24 | > 24 | –
CCOC(=O)C(C)c1nc2c(Cl)c3ncccc3cc2[nH]c1=O (centres undefined) | > 200 | > 200 | –
CCCCCC(=O)c1ccc2[nH]c3c(C)cc([N+](=O)[O-])c(C)c3c2c1 | > 4.27 | > 4.27 | –
CC1/C=C/C=C/CC/C=C/C=C/C=C/C=C/C(OC2OC(C)C(O)C(N)C2O)CC2OC(CC(O)C(O)CCC(O)CC(O)CC(O)CC(=O)OC(C)C(C)C1O)CC(O)C2C(=O)O (centres undefined) | > 50.1 | 3.31 | –
CC1CC(=O)Nc2ccccc2N1C(=O)C1CC1 (centres undefined) | > 200 | > 200 | –
N#C[C@H](c1ccccn1)c1nc2ccccc2nc1Cl | > 200 | 115 | –
O=C(O)CN(c1ccccc1)S(=O)(=O)c1cccc([N+](=O)[O-])c1 | – | – | inactive
Cc1cc2c(cc1C)NS(=O)(=O)N2 | > 447 | 9.77 | –
CC1(C)OC([C@H](O)CO)C([C@H]2NCCS2)O1 (some centres undefined) | > 200 | > 200 | –
Cc1cc(C)c(NS(=O)c2ccc(Cl)cc2)c(C)c1 (centres undefined) | > 33.9 | > 33.9 | –
Cc1cc(N(CCC#N)CCC#N)ccc1/C=C1/N=C(c2ccccc2)N(N)C1=O | > 63.1 | 42.7 | –

Compound | EC50 [µM] | IC50 [µM] | outcome
CC(OC(C)(C)C)C(NC(=O)C(CCCCNC(=O)OC(C)(C)C)NC(=O)C(Cc1c[nH]c2ccccc12)NC(=O)C(N)Cc1ccccc1)C(=O)NC(Cc1ccccc1)C(=O)NC1(C(=O)O)CCCC1 (centres undefined) (H-FWK(Boc)T(tBu)F[Ac5c]-OH; configuration not given here) | 97.7 | > 100 | –
CN(C)C=Nc1nncc2n[nH]nc12 | > 200 | > 200 | –
CC(CC[C@@]1(C)C(=O)CCC2O[C@]21C)[C@H]1C[C@@H](c2ccoc2)OC1=O (some centres undefined) | > 200 | 34.7 | –
COC(=O)C(=O)C(C(=O)OC)C(=O)C(=O)Nc1ccccc1C(N)=O (centres undefined) | > 74.1 | > 74.1 | –
Cn1c2ccccc2c2nc3ccccc3nc21 | > 22.4 | > 22.4 | –
O=C(Cc1ccccc1)N/N=C(/c1nc2ccc([N+](=O)[O-])cc2[nH]c1=O)C(O)c1ccco1 (centres undefined) | > 209 | > 209 | –
CCOc1cc2c(=O)oc3c(OC)ccc4ccc(c1OC)c2c43 | – | – | inactive
O=C(CC/C(CC(=O)c1ccc(Cl)cc1)=N/O)Nc1ccc(Cl)c(Cl)c1 | > 437 | > 437 | –
O=C(N=S(NC(=O)c1ccccc1)C(Cl)(Cl)Cl)c1ccccc1 (centres undefined) | > 44.7 | 16.6 | –
C=C1C(=O)O[C@H]2[C@H]3O[C@@H](C[C@@H]12)[C@](C)(O)CC[C@@H]1O[C@@]1(C)CCC[C@H]3C | > 200 | 8.13 | –
CC1=C(C(=O)NNC(=O)Cc2ccccc2)CC(C(=O)NNC(=O)Cc2ccccc2)=C(C)N1 | > 200 | 36.3 | –
CC(C)CCCC(C)C1CCC2C3CC(OC4OC(CO)C(O)C(O)C4O)C4C[C@@H](OS(=O)(=O)O)CC[C@]4(C)C3CC[C@]12C (some centres undefined) | > 37.2 | 15.1 | –
OC1C2CCC1C1C3C=CC(C3)C21 (centres undefined) | – | – | inactive
N#CCCN(CCC#N)c1ccc(/C=C(/NC(=O)c2cc([N+](=O)[O-])ccc2Cl)C(=O)N=[N+]=[N-])cc1 | > 20.4 | > 20.4 | –
C=C(CC[C@@H](O)C(Cl)CO)[Si](C)(C)C (some centres undefined) | > 110 | > 110 | –
COC(OC(CO)C(O)S(=O)(=O)O)C(O)S(=O)(=O)O (centres undefined) | > 200 | 32.4 | –
CCCS(=O)(=O)/C(=C(\c1ccc(Br)cc1)S(=O)(=O)CCC)c1ccc(Br)cc1 | > 2.63 | > 2.63 | –
COc1cc2c3cc1Oc1c(OC)c(OC)cc4c1C(Cc1ccc(O)c(c1)Oc1ccc(cc1)CC3N(C)CC2)N(C)CC4 (centres undefined) | – | – | inactive
CCOC(=O)c1c(N2CCCC2)ncn(Cc2ccccc2)c1=S | > 200 | > 200 | –
COc1ccccc1N1CCCSC1=Nc1ccccc1 | 81.3 | 214 | –
